# From patent publication US20150087722A1, “TREATMENT FOR BREAST TUMOR CELL METASTASIS” (China Medical University, priority 2012, published 2015)
# Key:
# [1] = tested on: ERK1/2, p38 and JNK1/2 in breast tumor cells; experiment: western blotting of MAPK proteins and phosphorylation; format: cell-based, human; settings: 2 μM, 0-120 min
# Protocol: The steps of western blotting include: washing cells with PBS twice at 4° C.; adding a lysis buffer and rubbing the cells by a rubbr policeman so as to lyse cells; putting the lysed cell solution into a 1.5 ml microcentrifuge tube and shaking for 1 min; centrifuging at 12000 rpm for 10 min and taking the supernatant; measuring concentration of the protein through a Bio-Rad protein assay kit; and storing the remained extracted protein solution at −70° C.; taking 100 μg protein solution and adding a SDS/protein loading buffer having the same volume, where the SDS/protein loading buffer has a concentration two times larger than the protein solution; boiling the mixture of the protein solution and the SDS/protein loading buffer at 100° C. for 10 min; cooling and loading the protein samples in each hole of gel; adjusting the voltage to 100 V and running the protein samples on the gel until the tracking dye in the sample buffer reaches the bottom of the gel; and subsequently transferring the protein from the gel using electrophoresis. […] Then luminescence image equipment was used, where the PVDF was placed onto a black metal plate by a plastic pincer and the face including protein was upwards, a 1:1 mixed Chemiluminesent Substrate was added into the membrane and the exposure time depends on the fluorescence intensity of antibodies. […]
# [2] = tested on: E-cadherin and Vimentin in cells of tumor inoculated nude mice; experiment: immunochemistry staining of E-cadherin and Vimentin in tumors of nude mice; format: in vivo; settings: 0.75 mg/Kg everyday
# Protocol: ICC includes embedding the tumor cells in paraffin and slicing the embedded cells into slides having a thickness of […] by a slicer, deparaffinizing, rehydrating and renaturating, picking the slide out and putting the slide into the primary antibody E-cadherin; reacting for 1.5 h and washing the slide for three times with PBS, reacting with the secondary antibody for 30 min and washing the slide for three times with PBS, staining the slide with 3′,3′-diaminobenzendine (DAB) at a ratio of 1:30, and the slide was mounted with Entellanz. The expression amount of signaling-related proteins in the cells of tumor inoculated nude mice was detected by an immunochemistry staining method. In this test the expression of E-cadherin and Vimentin was particularly detected. Immunochemistry staining method and the quantitative method thereof were described as in the test example 2-2, and it is not illustrated any further. FIG. 29 illustrates photomicrographs of expression results of signaling-related proteins in the cells of tumor inoculated nude mice after the cells were stained through the immunochemistry staining method. FIGS. 30 and 31 were respective quantitative results of primary antibody reaction.
# [3] = tested on: EMT-related proteins in human normal breast cells MCF-10A stimulated by TNF-α/TGF-β; experiment: western blotting of EMT-related proteins; format: cell-based
# Protocol: FIG. 2A illustrates the expression results of EMT-related proteins in breast tumor cells MDA-MB-231 after the breast tumor cells MDA-MB-231 have been respectively cultured under compound II having concentrations of 0, 0.5, 1 and 2 μM for 24 h; and FIG. 2B illustrates the expression results of EMT-related proteins in breast tumor cells MCF-7 after the breast tumor cells MCF-7 have been respectively cultured under the compound II having concentrations of 0, 10, 15 and 20 μM for 24 h. FIG. 3A illustrates the western blotting results of EMT-related proteins in the breast tumor cells MDA-MB-468, where the breast tumor cells MDA-MB-468 are treated with the compound I having concentrations of 0, 0.5, 1 and 2 μM for 24 h, and FIG. 3B illustrates the western blotting results of EMT-related proteins in the breast tumor cells MDA-MB-435, where the breast tumor cells MDA-MB-435 are treated with the compound I having concentrations of 0, 2.5, 5 and 7.5 μM for 24 h. FIG. 4 illustrates the western blotting results of EMT-related proteins in the human normal breast cells MCF-10A stimulated by TNF-α/TGF-β, where the human normal breast cells MCF-10A are treated with the compound I having concentrations of 2 μM for 24 h. The human normal breast cells stimulated by TNF-α/TGF-β can cause TNF-α/TGF-β-induced EMT in the human normal breast cells MCF-10A. The steps of western blotting include: washing cells with PBS twice at 4° C.; adding a lysis buffer and rubbing the cells by a rubbr policeman so as to lyse cells; putting the lysed cell solution into a 1.5 ml microcentrifuge tube and shaking for 1 min; centrifuging at 12000 rpm for 10 min and taking the supernatant; measuring concentration of the protein through a Bio-Rad protein assay kit; and storing the remained extracted protein solution at −70° C.; taking 100 μg protein solution and adding a SDS/protein loading buffer having the same volume, where the SDS/protein loading buffer has a concentration two times larger than the protein solution; boiling the mixture of the protein solution and the SDS/protein loading buffer at 100° C. for 10 min; cooling and loading the protein samples in each hole of gel; adjusting the voltage to 100 V and running the protein samples on the gel until the tracking dye in the sample buffer reaches the bottom of the gel; and subsequently transferring the protein from the gel using electrophoresis. A PVDF membrane was soaked in methanol until the paper was totally wet. […] Then luminescence image equipment was used, where the PVDF was placed onto a black metal plate by a plastic pincer and the face including protein was upwards, a 1:1 mixed Chemiluminesent Substrate was added into the membrane and the exposure time depends on the fluorescence intensity of antibodies. […]
# [4] = 2 μM with TNF-α/TGF-β 10 ng/ml, 24 h
Compound,"phosphorylation of ERK1/2, p38 and JNK1/2 [1]","protein expression of ERK1/2, p38 and JNK1/2 [1]",expression amount of proteins used for facilitating tumor proliferation in tumor tissues [2],expression amount of proteins used for inhibiting tumor proliferation in tumor tissues [2],"protein expression amount of E-cadherin and occludin [3, 4]","protein expression amount of vimentin and β-catenin [3, 4]",protein expression amount of E-cadherin and occludin ([3]; compound alone 2 μM),protein expression amount of vimentin and β-catenin ([3]; compound alone 2 μM)
COC1=C(OC)C(=O)C(C)=C(C)C1=O [compound II],probably inhibited,not affected,low,high,–,–,–,–
COC1=C(OC)C(=O)C(C)=CC1=O [compound I],–,–,–,–,also increased,recovered the increase caused by TNF-α/TGF-β stimulating,increased,decreased
